Where “and” joins values, the source holds several entries; their conditions need not be identical. Equal values may be shown once. Entries after “also recorded” stand apart in the source; their conditions may differ. Where a name gives a salt, the structure may show the parent alone. Read-outs that look alike come from different tables or passages of the source.
Assays:
[1] = system: Influenza, Ann Arbor virus; assay: Influenza Ann Arbor in mice, oral; schedule by table; late read day 5 (Tables 15, 25, 29, 30), 6 (18, 20, 22, 23, 26, 27, 28, 54), 7 (14, 19, 21, 24, 53, 56), 8 (16, 17, 51), 9 (11, 55); assay type: in vivo, mouse
[2] = system: viral infections; assay: Antiviral screening in animals, general statements; details: mouse, in vivo
[3] = system: Herpes virus
[4] = system: Influenza B Maryland virus; assay: Influenza B Maryland in mice, oral; assay type: in vivo, mouse
[5] = system: Influenza, Ann Arbor virus; assay: Influenza Ann Arbor in mice, subcutaneous; late read day 9 (Table 11), 7 (Tables 12, 14), 5 (Table 13); assay type: in vivo, mouse
[6] = system: Influenza PR 8 virus; assay: Influenza PR 8 in mice, oral; schedule by table; late read day 6 (Table 37), 7 (33, 36), 8 (32, 35, 47), 10 (38); control fraction 18/20 (Table 32), 19/20 (Table 35), else 100%; assay type: in vivo, mouse
[7] = system: Vaccinia IHD virus; assay type: in vivo, mouse
[8] = system: Neurovaccinia virus; assay: Neurovaccinia in mice; details: intraperitoneal
[9] = system: Columbia SK Polio virus; assay type: in vivo, mouse; details: mouse, in vivo
[10] = system: Vaccinia virus; assay type: in vivo, rabbit; details: rabbit, in vivo

## CN1C(=O)/C(=N\NC(N)=S)c2ccccc21 [Methisazone, 1-methylindole-2,3-dione, 3-thiosemicarbazone, reference compound]
[1]; total dose 5 μg
  No. animals surviving after 5-9 days: 4
  Survivors: 0
[1]; total dose 50 μg
  No. animals surviving after 5-9 days: 3
  Survivors: 0
[1]; total dose .00005 μg
  No. animals surviving after 5-9 days: 6
  Survivors: 0
[1]; total dose .0005 μg
  No. animals surviving after 5-9 days: 5
  Survivors: 0
[1]; total dose .005 μg
  No. animals surviving after 5-9 days: 5
  Survivors: 0
[1]; total dose .05 μg
  No. animals surviving after 5-9 days: 4
  Survivors: 0
[1]; total dose .5 μg
  No. animals surviving after 5-9 days: 6
  Survivors: 0
[2]
  activity in words: active against pox virus infections of mice; also recorded: activity
[3]; total dose .0000005 μg
  No. animals surviving after 6-9 days: 4 and 3
[3]; total dose .05 μg
  No. animals surviving after 6-9 days: 1
  No. animals surviving when 100% (or given fraction) of controls are dead: 0
  Survivors: 0
[4]; mouse, in vivo
  activity in words: active
[4]; total dose 6 ng
  No. animals surviving when 18/20 of controls are dead: 4
  Survivors: 2
[4]; total dose 60 ng
  No. animals surviving when 18/20 of controls are dead: 4
  Survivors: 2
[4]; total dose 600 ng
  No. animals surviving when 18/20 of controls are dead: 2
  Survivors: 2
[4]; total dose 6 μg
  No. animals surviving when 18/20 of controls are dead: 4
  Survivors: 1

## NN [hydrazine, hydrate]
[1]; total dose 5 μg
  No. animals surviving after 5-9 days: 4
  Survivors: 0
[1]; total dose 50 μg
  No. animals surviving after 5-9 days: 4
  Survivors: 0
[1]; total dose 500 μg
  No. animals surviving after 5-9 days: 5
  Survivors: 0
[1]; total dose .00005 μg
  No. animals surviving after 5-9 days: 6
  Survivors: 0
[1]; total dose .0005 μg
  No. animals surviving after 5-9 days: 6
  Survivors: 0
[1]; total dose .005 μg
  No. animals surviving after 5-9 days: 3
  Survivors: 0
[1]; total dose .05 μg
  No. animals surviving after 5-9 days: 3
  Survivors: 1
[1]; total dose .5 μg
  No. animals surviving after 5-9 days: 6
  Survivors: 0
[2]
  activity in words: active
[5]; total dose 5 μg
  No. animals surviving after 5-9 days: 6
[5]; total dose 5 μg, hydrate
  Survivors: 3
[5]; total dose 50 μg, hydrate
  No. animals surviving after 5-9 days: 7 and 4
[5]; total dose 500 μg
  Survivors: 0
[5]; total dose 500 μg, hydrate
  No. animals surviving after 5-9 days: 6 and 3
[5]; total dose .00005 μg
  No. animals surviving after 5-9 days: 1
  Survivors: 0
[5]; total dose .0005 μg, hydrate
  No. animals surviving after 5-9 days: 5 and 7
[5]; total dose .005 μg, hydrate
  No. animals surviving after 5-9 days: 3 and 4
[5]; total dose .05 μg, hydrate
  No. animals surviving after 5-9 days: 4 and 6
[5]; total dose .5 μg, hydrate
  No. animals surviving after 5-9 days: 7 and 5
[6]; total dose 5 μg
  No. animals surviving after 6-10 days: 1
  No. animals surviving when 100% (or given fraction) of controls are dead: 0
  Survivors: 0
[6]; total dose 50 μg
  No. animals surviving after 6-10 days: 1
  No. animals surviving when 100% (or given fraction) of controls are dead: 0
  Survivors: 0
[6]; total dose .000005 μg
  No. animals surviving after 6-10 days: 4
[6]; total dose .000005 μg, hydrate
  No. animals surviving when 100% (or given fraction) of controls are dead: 4
[6]; total dose .0005 μg, hydrate
  Survivors: 1
[6]; total dose .5 μg
  No. animals surviving when 100% (or given fraction) of controls are dead: 1
  Survivors: 1
[6]; total dose .5 μg, hydrate
  No. animals surviving after 6-10 days: 1

## NNC(N)=O [semicarbazide, hydrochloride]
[2]
  activity in words: effective
[7]; 10 ng, day 6
  Statistical Significance of Tail Lesions: < .01
[7]; 10 ng, day 11
  Statistical Significance of Tail Lesions: < .05
[7]; 10 ng, day 12
  Statistical Significance of Tail Lesions: < .05
[7]; 10 ng, day 17
  Statistical Significance of Tail Lesions: < .05
[7]; 1 μg, day 6
  Statistical Significance of Tail Lesions: < .01
[7]; 1 μg, day 8
  Statistical Significance of Tail Lesions: < .01
[7]; 1 μg, day 10
  Statistical Significance of Tail Lesions: < .01
[7]; 1 μg, day 11
  Statistical Significance of Tail Lesions: < .01
[7]; 1 μg, day 12
  Statistical Significance of Tail Lesions: < .01
[7]; 1 μg, day 14
  Statistical Significance of Tail Lesions: < .01
[7]; 1 μg, day 17
  Statistical Significance of Tail Lesions: < .01
[7]; 1 μg, day 21
  Statistical Significance of Tail Lesions: < .05
[7]; 10 [μg], day 7
  Statistical Significance of Tail Lesions: < .01
[7]; 10 [μg], day 10
  Statistical Significance of Tail Lesions: < .05
[7]; 10 [μg], day 11
  Statistical Significance of Tail Lesions: < .01
[7]; 10 [μg], day 12
  Statistical Significance of Tail Lesions: < .01
[7]; 10 [μg], day 14
  Statistical Significance of Tail Lesions: < .01
[7]; 10 [μg], day 17
  Statistical Significance of Tail Lesions: < .01
[7]; 10 [μg], day 21
  Statistical Significance of Tail Lesions: < .05
[7]; 100 [ng], day 7
  Statistical Significance of Tail Lesions: < .05
[7]; 100 [ng], day 11
  Statistical Significance of Tail Lesions: < .05
[7]; 100 [ng], day 12
  Statistical Significance of Tail Lesions: < .05
[7]; 100 [ng], day 14
  Statistical Significance of Tail Lesions: < .05
[7]; 100 [ng], day 17
  Statistical Significance of Tail Lesions: < .01
[7]; 100 [ng], day 21
  Statistical Significance of Tail Lesions: < .01
[8]; total dose .0075 μg
  No. animals surviving after 6 days: 1/2
[8]; total dose .75 μg
  Survivors: 0
[3]; total dose 5 μg, hydrochloride
  No. animals surviving after 6-9 days: 5

## CCC(C)=NNC(N)=S [thiosemicarbazone]
[9]
  instances of statistically significant geometric mean survival time: two
[10]
  effect on pox formation: very striking effects of the drug on the pox formation; also recorded: highly significant diminution of pox formation

From US4027039A (priority 1975, dated 1977)
